From US20200261605A1, “FUNCTIONALIZED LIPOSOMES FOR IMAGING MISFOLDED PROTEINS” (ALZECA BIOSCIENCES, LLC, priority 2019, published 2020)

How the values were obtained:
[1] = biological target: tau fibrils (phosphorylated tau-441 (2N4R)) (Homo sapiens, UniProt P10636); assay: Binding studies with tau fibrils (fluorescence, no separation); conditions: 0.85 μM tau fibrils, 2 hours; Ex 360 nm, Em 535 nm
Method: Lyophilized tau-441 (2N4R) was dissolved in buffer containing 40 mM HEPES, 5 mM EGTA, 3 mM MgCl2, pH 7.5. Tau was phosphorylated with GSK-3b in the presence of 2 mM ATP at 30° C. for 40 hours. Tau was used at 30-75 μM concentration, and GSK-3b was used at 0.02-0.08 U/pmol of tau. SDS PAGE gel was run to confirm the phosphorylation of tau (FIG. 8).
To make fibrils, the phosphorylated tau was reacted with arachidonic acid (ARA). The p-tau was diluted in 10 mM HEPES, 1 mM EDTA, 5 mM DTT and 150 mM NaCl at pH-7.6 to final concentration of 32 μM and ARA at 37 times molar excess of tau was added. The mixture was incubated for 2 days at 37° C. for 2 days. Fresh DTT was supplemented daily. The oligomers formed were used as seeds for fibril formation. 8 μM of tau seeds were used to form fibrils with 30 μM p-tau in 10 mM HEPES, 1 mM EDTA, 5 mM DTT and 150 mM NaCl at pH-7.6. ARA was used at 37 times molar excess over p-tau monomer and incubated at 37° C. for 2 days. Fresh DTT was added every day.
Different dilutions of p-FTAA molecule were added and mixed with 0.85 μM of tau fibrils and incubated for 2 hours. The mixture was assayed as is without separation of bound and unbound fibrils. Excitation at 360 nm and emission at 535 nm was used for detection of p-FTAA binding to tau fibrils.

α-Synuclein fibrils = α-Synuclein fibrils (Homo sapiens, UniProt P37840); assay: Binding studies with α-Synuclein fibrils (fluorescence of unbound fraction); conditions: 5 μM α-Synuclein fibrils, 2 hours incubation; read-out: dissociation constant, Kd
Method: Different dilutions of Conjugate A liposomes or p-FTAA were added and mixed with 5 μM of α-Synuclein fibrils and incubated for 2 hours. The mixture was centrifuged at 21000 g for 5 mins. The supernatant was removed and assayed for fluorescence of p-FTAA that was unbound to the fibrils. Excitation of 405 nm and emission of 574 nm emission was used. A standard curve from known concentrations of liposomes or pFTAA was made. The bound fraction was calculated as the difference between the total pFTAA or pFTAA-liposomes that was incubated and the unbound fraction. […] A dissociation constant of 3 nM was determined for the p-FTAA molecule (FIG. 7B).

Chain of tau fibrils (phosphorylated tau-441 (2N4R)) (P10636 1-441 isoform P10636-8): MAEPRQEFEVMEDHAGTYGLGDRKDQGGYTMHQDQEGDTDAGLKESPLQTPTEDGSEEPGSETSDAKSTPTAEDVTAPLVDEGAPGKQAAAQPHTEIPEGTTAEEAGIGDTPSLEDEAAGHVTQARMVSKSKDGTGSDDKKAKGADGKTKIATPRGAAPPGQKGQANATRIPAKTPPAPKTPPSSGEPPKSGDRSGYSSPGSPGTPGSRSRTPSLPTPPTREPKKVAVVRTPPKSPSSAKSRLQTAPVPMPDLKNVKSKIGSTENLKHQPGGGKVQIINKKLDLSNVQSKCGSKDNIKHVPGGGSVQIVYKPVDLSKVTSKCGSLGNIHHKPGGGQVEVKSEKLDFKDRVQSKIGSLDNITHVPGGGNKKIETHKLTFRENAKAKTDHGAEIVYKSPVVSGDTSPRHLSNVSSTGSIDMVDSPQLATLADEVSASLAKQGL

fluorescence with tau fibrils in comparison to p-FTAA only [1]: increase in fluorescence
Kd (α-Synuclein fibrils): 3 nM
Structure (SMILES): O=C(O)Cc1cc(-c2ccc(C(=O)O)s2)sc1-c1ccc(-c2sc(-c3ccc(C(=O)O)s3)cc2CC(=O)O)s1 [p-FTAA, pentameric formyl thiophene acetic acid]
